Experimental findings from ChEMBL document CHEMBL4699621, “Novel piperazine-2,5-dione analogs bearing 1H-indole: Synthesis and biological effects” (Bioorg Med Chem Lett, 2020) are described below.

Test [1] deals with Mus musculus. The test is described as follows: Analgesic activity in mouse assessed as inhibition of acetic acid-induced writhing at 10 mg/kg, ip measured after 60 mins relative to control. To be noted: 1 h. It counts as functional. More on the design: scale not given: the % may be the effect or the level left.
The test system of test [2] is Mus musculus. The test is described as follows: Anti-inflammatory activity against dimethylbenzene-induced ear edema mouse model assessed as inhibition of ear edema at 10 mg/kg, ip measured after 60 mins (reference value: 6.93 +/- 1.05 mg). It counts as functional. To be noted: 1 h.
The test system of test [3] is Mus musculus. The test is described as follows: Antidepressant activity in mouse assessed as decrease in immobility time at 10 mg/kg, ip by forced swimming test (reference value: 147.8 +/- 10.2 sec). Format: functional.
Test [4] deals with Mus musculus. The test is described as follows: Anti-inflammatory activity against dimethylbenzene-induced ear edema mouse model assessed as inhibition of ear edema at 10 mg/kg, ip measured after 60 mins relative to control. It counts as functional. The arrangement: scale not given: the % may be the effect or the level left. To be noted: 1 h.
For test [5], the target named is 5-HT3 receptor (Cavia porcellus). The test is described as follows: Antagonist activity against 5-H3R in guinea pig ileum preincubated for 10 mins followed by 2-methyl 5-HT addition. To be noted: read-out: pA2 (converted).
The test system of test [6] is Mus musculus. The experiment in a line: Antidepressant activity in mouse assessed as decrease in immobility time at 10 mg/kg, ip by forced swimming test relative to control. It counts as functional. More on the design: scale not given: the % may be the effect or the level left.

For the molecule `Cc1cc2cc(CC3NC(=O)C(C)NC3=O)[nH]c2cc1C` (stereo not given), the Activity with Mus musculus [1] was 54.3%; with Mus musculus [2], 2.83 mg. The Time with Mus musculus [3] is listed as 87.2 s.
Regarding `Cc1ccc2cc(CC3NC(=O)C(C)NC3=O)[nH]c2c1` (stereo not given), the Activity was found to be 79.3% with Mus musculus [1], 1.12 mg in the test with Mus musculus [2] and 83.3% in the test on Mus musculus [4]. Moreover, the Time in the test with Mus musculus [3] is on record as 58.2 s.
Regarding `CC1NC(=O)C(Cc2cc3ccc(F)cc3[nH]2)NC1=O` (stereo not given), the results for the Activity in the test on Mus musculus [1], in the test on Mus musculus [2] and with Mus musculus [4] were 77.8%, 0.69 mg and 90%, respectively. Moreover, the Time in the test on Mus musculus [3] came to 52.8 s.
Consider `COc1cc2cc(CC3NC(=O)C(C)NC3=O)[nH]c2cc1OC` (stereo not given), for which the figures for the Activity with Mus musculus [1] and in the test with Mus musculus [2] were 58.9% and 3.03 mg, respectively. In addition, the Time in the test with Mus musculus [3] was determined as 98 s.
Take `CC1NC(=O)C(Cc2cc3cc(Cl)ccc3[nH]2)NC1=O` (stereo not given): the Activity amounted to 87.5% in the test on Mus musculus [1], 0.7 mg in the test on Mus musculus [2] and 89.8% with Mus musculus [4]. For the same molecule, the Time in the test on Mus musculus [3] was found to be 64.8 s.
For `CC1NC(=O)C(Cc2cc3ccc(Cl)cc3[nH]2)NC1=O` (stereo not given) the same measures were 65.4%, 0.89 mg, 87.2% and 66.8 s.
Regarding `CC1NC(=O)C(Cc2cc3cc(Br)ccc3[nH]2)NC1=O` (stereo not given), the Activity was determined as 70.2% in the test with Mus musculus [1] and 1.42 mg in the test with Mus musculus [2]. The Time with Mus musculus [3] worked out at 79.4 s.
Consider `CC1NC(=O)C(Cc2cc3ccc(Br)cc3[nH]2)NC1=O` (stereo not given), for which the Activity was found to be 62.8% in the test with Mus musculus [1] and 1.72 mg in the test on Mus musculus [2]. Further, the Time with Mus musculus [3] was determined as 76.8 s.
For the molecule `CC1NC(=O)C(Cc2cc3cc(F)ccc3[nH]2)NC1=O` (stereo not given), the Activity in the test on Mus musculus [1] was 90.2%; in the test on Mus musculus [2], 0.61 mg; in the test with Mus musculus [4], 91.2%. The Time in the test on Mus musculus [3] was determined as 53.1 s.
Consider `CC1NC(=O)C(Cc2cc3cc([N+](=O)[O-])ccc3[nH]2)NC1=O` (stereo not given), for which the Activity in the test on Mus musculus [1] stood at 66.8%; with Mus musculus [2], 1.61 mg. The Time with Mus musculus [3] came out at 88.6 s.
For `CC1NC(=O)C(Cc2cc3cc(N(C)C)ccc3[nH]2)NC1=O` (stereo not given) the same measures were 50.9%, 2.02 mg and 91.3 s.
The matching figures for `CC1NC(=O)C(Cc2cc3ccccc3[nH]2)NC1=O` (stereo not given): 51.6%, 2.4 mg and 93.3 s.
On to `Cc1ccccc1N1CCN(C(=O)C2Cc3ccccc3N2C)CC1` (stereo not given), for which the Kb in test [5] is 31.6 nM.
With `CC1NC(=O)C(Cc2cc3cc(C(F)(F)F)ccc3[nH]2)NC1=O` (stereo not given), the Activity with Mus musculus [1] was 88.9%; with Mus musculus [2], 0.45 mg; in the test with Mus musculus [6] it was 70.2%; in the test with Mus musculus [4], 93.5%. Also, the Time in the test with Mus musculus [3] is 44 s.
With `COc1ccc2cc(CC3NC(=O)C(C)NC3=O)[nH]c2c1` (stereo not given), the Activity with Mus musculus [1] is on record as 65%; in the test on Mus musculus [2] it was 1.5 mg. For the same molecule, in the test on Mus musculus [3], the Time is 77.2 s.
`CC1NC(=O)C(Cc2cc3ccc(N(C)C)cc3[nH]2)NC1=O` (stereo not given): the Activity with Mus musculus [1] amounted to 60.1%; in the test on Mus musculus [2], 2.47 mg. Further, in the test on Mus musculus [3], the Time amounted to 95.1 s.
As to `CC1NC(=O)C(Cc2cc3cc(Cl)c(Cl)cc3[nH]2)NC1=O` (stereo not given), the Activity in the test with Mus musculus [1] is given as 82.5%; in the test on Mus musculus [2], 0.79 mg; in the test on Mus musculus [6], 71.2%; with Mus musculus [4] it was 87.2%. In the test on Mus musculus [3], the Time was 42.5 s.
For the molecule `COc1ccc2[nH]c(CC3NC(=O)C(C)NC3=O)cc2c1` (stereo not given), the figures for the Activity with Mus musculus [1] and with Mus musculus [2] were 53.2% and 1.41 mg, respectively. Also, in the test on Mus musculus [3], the Time stood at 67.3 s.
For `Cc1ccc2[nH]c(CC3NC(=O)C(C)NC3=O)cc2c1` (stereo not given), the Activity was 55.2% in the test with Mus musculus [1], 1.04 mg in the test on Mus musculus [2] and 85% with Mus musculus [4]. Also, the Time in the test with Mus musculus [3] turned out to be 53.5 s.
For `CNCCC(Oc1ccc(C(F)(F)F)cc1)c1ccccc1` (stereo not given) [FLUOXETINE], the Activity in the test on Mus musculus [6] turned out to be 67.9%. Further, the Time in the test on Mus musculus [3] amounted to 47.4 s.
In the case of `COc1ccc2c(c1)c(CC(=O)O)c(C)n2C(=O)c1ccc(Cl)cc1` [INDOMETHACIN], the Activity with Mus musculus [1] was 88.7%; in the test with Mus musculus [2], 1.05 mg; in the test with Mus musculus [4], 84.8%.
